Patent US12215104B2, “Anti-biofilm compounds” (UNIVERSITY OF LOUISVILLE RESEARCH FOUNDATION, INC., priority 2018, dated 2025)
Read-outs that look alike come from different tables or passages of the source.

Columns and labels:
P. gingivalis = assay: Effect on planktonic growth of P. gingivalis; type: cell-based, P. gingivalis ATCC33277; details: incubated overnight in the presence of 40 μM compound
From the text: (§1) To assess the functional activity of the click products, compounds 28-57 (Groups I and II) and 90-124 (Group III) were examined for inhibition of P. gingivalis adherence to S. gordonii using an established biofilm model system as described in the Section 4.2.1 [41]. For each compound tested, an IC50 value for adherence inhibition was approximated after quantifying the ratio of green to red fluorescence and these values are shown in Tables 2, 3 and 4. Compounds were classified as strong (IC50<10 μM), moderate (IC50=10-20 μM) or weak (IC50>20 μM) inhibitors of adherence. Twelve compounds were identified as strong inhibitors and an additional ten compounds were classified as moderate inhibitors. […] Compounds 54, 56, 93, 95, 100, 102, 103, and 115 were also tested to determine if they affect the growth of P. gingivalis or S. gordonii. […] The sulfoxide group does impart asymmetry to the molecule; however, the mixture of enantiomers, assuming the peracid oxidation was racemic, was not separated and bioassayed. The Group III active compounds (95-117) all contain the 1,3,5-trisubstituted-2,4,6-triazine modeled after the Katzenellenbogen rendering of an active motif whereby the key leucine residues which mimicked the VXXLL receptor box lie in a triangular arrangement. While the original iteration of the Katzenellenbogen VXXLL mimics were the hydrophobic 3,5-disubstituted-di-N-alkyamino-triazine motifs, we introduced the hydrophobic 2- and 4-(fluorophenyl)amino groups at positions 3 and 5 of the 2,4,6-triazine (See Compounds 102, 111, 115, 122).
(§2) P. gingivalis ATCC33277 was grown in reduced trypticase soy broth (Difco) supplemented with 0.5 percent yeast extract, 1 μg/mL menadione, and 5 μg/mL hemin. Twenty five milliliters of medium were reduced for 24 h under anaerobic conditions by equilibrating in an atmosphere consisting of 10% CO2, 10% H2, and 80% N2. Following equilibration, P. gingivalis was inoculated in the media and grown for 48 h at 37° C. under anaerobic conditions. S. gordonii DL-1 (1) was cultured aerobically without shaking in brain heart infusion (BHI) broth supplemented with 1 percent yeast extract for 16 hours at 37° C. For some compounds that inhibited P. gingivalis adherence to S. gordonii, we determined their affect the planktonic growth of P. gingivalis and S. gordonii. Broth cultures were grown as described above and compared to cultures grown in the absence of the compound. Cell density of each culture was determined by measuring the optical density at 600 nm (O.D.600 nm) after 24 h of growth. The percent growth inhibition/stimulation was calculated using the following equation: [(O.D.600 nm of the control/O.D.600 nm of the culture grown in the presence of compound)−1]×100.

S. gordonii = assay: Effect on planktonic growth of S. gordonii; type: cell-based, S. gordonii DL-1; details: incubated overnight in the presence of 40 μM compound
From the text: as §1, §2

[1] = test system: P. gingivalis adherence to S. gordonii; assay: Inhibition of P. gingivalis adherence to S. gordonii in two-species biofilm model; type: cell-based, P. gingivalis ATCC33277; S. gordonii DL-1
From the text: as §1, §2
Two species biofilms were formed essentially as previously described. To prepare bacterial cells for biofilm culture, 10 ml of an overnight S. gordonii culture was centrifuged at 5600 rpm for 5 min and the cell pellet was suspended in 1 mL sterile PBS. Subsequently, 20 μL of 5 mg/ml hexidium iodide (Molecular Probes) was added to the cell suspension and incubated for 15 min with gentle shaking at room temperature in the dark. The labeled cells were centrifuged as described above, washed with phosphate buffered saline (10 mM Na2HPO4, […], […], and 2.7 mM KCl, pH 7.2; [PBS]) and the cell pellet was suspended in PBS at a final O.D.600 nm of 0.8. Similarly, 10 mL of a 48 h culture of P. gingivalis was centrifuged at 5600 rpm for 15 min, the cell pellet was suspended in 1 mL PBS and 20 μl of 5(6)-carboxyfluorescein N-hydroxysuccinimide ester (4 mg/ml, Molecular Probes, Inc.) was added. After incubation for 30 min with gentle shaking at room temperature in the dark, the suspension was centrifuged and washed as described above and suspended in PBS at a final O.D.600 nm of 0.4. […]

gingival keratinocytes = assay: Induction of apoptosis in gingival keratinocytes; type: cell-based
[2] = test system: pre-existing 3-species biofilm; assay: Disruption of a pre-existing 3-species biofilm in vitro; type: cell-based; details: 20 μM
[3] = Table 3, Group II click products, concentration reducing green to red fluorescence ratio by 50%, approximated
[4] = read-out: IC50 for inhibition of adherence of P. gingivalis to S. gordonii

## COc1ccccc1-c1cn(-c2ccc(S(=O)(=O)Cc3nc(-c4ccc(F)cc4)c(-c4ccc(F)cc4)o3)cc2)nn1 [Compound 54]
P. gingivalis
  effect on growth of planktonic cultures of P. gingivalis: No effect on growth
S. gordonii
  effect on growth of planktonic cultures of S. gordonii: No effect on growth
[1]; [3]
  IC50: 21.2 µM

## O=S(=O)(Cc1nc(-c2ccc(Cl)cc2)c(-c2ccc(Cl)cc2)o1)c1ccc(-n2cc(-c3ccc(F)cc3)nn2)cc1 [Compound 56]
P. gingivalis
  effect on growth of planktonic cultures of P. gingivalis: No effect on growth
S. gordonii
  effect on growth of planktonic cultures of S. gordonii: No effect on growth
[1]; [3]
  IC50: 6.3 µM

## CCN(CC)c1nc(-c2cn(-c3ccc(-c4nc(-c5ccc(F)cc5)c(-c5ccc(F)cc5)o4)cc3)nn2)nc(N(CC)CC)n1 [Compound 93]
P. gingivalis
  effect on growth of planktonic cultures of P. gingivalis: No effect on growth
S. gordonii
  effect on growth of planktonic cultures of S. gordonii: No effect on growth
[1]; Group III
  IC50: 9.4 µM

## CCN(CC)c1nc(-c2cn(-c3ccc(-c4nc(-c5ccc(Cl)cc5)c(-c5ccc(Cl)cc5)o4)cc3)nn2)nc(N(CC)CC)n1 [Compound 95]
P. gingivalis
  effect on growth of planktonic cultures of P. gingivalis: No effect on growth
Gingival keratinocytes; 5 μM, gingival keratinocytes
  early apoptosis: 5.02
  late apoptosis: 4.27
  live cells: 88.50
Gingival keratinocytes; 20 μM, gingival keratinocytes
  early apoptosis: 4.89
  late apoptosis: 4.26
  live cells: 88.35
Gingival keratinocytes; 40 μM, gingival keratinocytes
  early apoptosis: 3.80
  late apoptosis: 2.83
  live cells: 91.75
[2]; time treated 1 h
  disruption of pre-existing 3-species biofilm: 16.47
[2]; time treated 2 h
  disruption of pre-existing 3-species biofilm: 52.84
[2]; time treated 3 h
  disruption of pre-existing 3-species biofilm: 81
S. gordonii
  effect on growth of planktonic cultures of S. gordonii: No effect on growth
[1]; Group III
  IC50: 3.7 µM
[1]; [4]
  IC50: 2.3 to 5.3 µM

## Fc1ccccc1Nc1nc(Nc2ccccc2F)nc(-c2cn(-c3cccc(-c4nc(-c5ccccc5)c(-c5ccccc5)o4)c3)nn2)n1 [Compound 100]
P. gingivalis
  effect on growth of planktonic cultures of P. gingivalis: No effect on growth
S. gordonii
  effect on growth of planktonic cultures of S. gordonii: No effect on growth

## Fc1ccc(-c2nc(-c3cccc(-n4cc(-c5nc(Nc6ccccc6F)nc(Nc6ccccc6F)n5)nn4)c3)oc2-c2ccc(F)cc2)cc1 [Compound 102]
P. gingivalis
  effect on growth of planktonic cultures of P. gingivalis: No effect on growth
S. gordonii
  effect on growth of planktonic cultures of S. gordonii: No effect on growth
[1]; Group III
  IC50: 5 µM

## Fc1ccc(-c2nc(-c3ccc(-n4cc(-c5nc(Nc6ccccc6F)nc(Nc6ccccc6F)n5)nn4)cc3)oc2-c2ccc(F)cc2)cc1 [Compound 103]
P. gingivalis
  effect on growth of planktonic cultures of P. gingivalis: No effect on growth
S. gordonii
  effect on growth of planktonic cultures of S. gordonii: No effect on growth
[1]; Group III
  IC50: 12.3 µM

## Fc1ccc(Nc2nc(Nc3ccc(F)cc3)nc(-c3cn(-c4cccc(-c5nc(-c6ccccc6)c(-c6ccccc6)o5)c4)nn3)n2)cc1 [Compound 111]
Gingival keratinocytes; 5 μM, gingival keratinocytes
  early apoptosis: 4.96
  late apoptosis: 2.36
  live cells: 89.25
Gingival keratinocytes; 20 μM, gingival keratinocytes
  early apoptosis: 5.06
  late apoptosis: 3.39
  live cells: 87.95
Gingival keratinocytes; 60 μM, gingival keratinocytes
  early apoptosis: 5.60
  late apoptosis: 4.38
  live cells: 84.40
[2]; time treated 1 h
  disruption of pre-existing 3-species biofilm: 0.62
[2]; time treated 2 h
  disruption of pre-existing 3-species biofilm: 7.33
[2]; time treated 3 h
  disruption of pre-existing 3-species biofilm: 56.63
[1]; Group III
  IC50: 4.3 µM
[1]; [4]
  IC50: 2.3 to 5.3 µM

## Fc1ccc(Nc2nc(Nc3ccc(F)cc3)nc(-c3cn(-c4ccc(-c5nc(-c6ccc(F)cc6)c(-c6ccc(F)cc6)o5)cc4)nn3)n2)cc1 [Compound 115]
P. gingivalis
  effect on growth of planktonic cultures of P. gingivalis: No effect on growth
Gingival keratinocytes; 5 μM, gingival keratinocytes
  early apoptosis: 3.89
  late apoptosis: 4.21
  live cells: 87.85
Gingival keratinocytes; 10 μM, gingival keratinocytes
  early apoptosis: 4.07
  late apoptosis: 2.47
  live cells: 91.25
Gingival keratinocytes; 20 μM, gingival keratinocytes
  early apoptosis: 4.06
  late apoptosis: 2.80
  live cells: 91.20
[2]; time treated 1 h
  disruption of pre-existing 3-species biofilm: 15.26
[2]; time treated 2 h
  disruption of pre-existing 3-species biofilm: 45.62
[2]; time treated 3 h
  disruption of pre-existing 3-species biofilm: 76.06
S. gordonii
  effect on growth of planktonic cultures of S. gordonii: No effect on growth
[1]; Group III
  IC50: 2.3 µM
[1]; [4]
  IC50: 2.3 to 5.3 µM

## Fc1ccc(Nc2nc(Nc3ccc(F)cc3)nc(-c3cn(-c4ccccc4-c4nc(-c5ccc(Cl)cc5)c(-c5ccc(Cl)cc5)o4)nn3)n2)cc1 [Compound 116]
[1]; Group III
  IC50: > 40 µM

## Fc1ccc(Nc2nc(Nc3ccc(F)cc3)nc(-c3cn(-c4cccc(-c5nc(-c6ccc(Cl)cc6)c(-c6ccc(Cl)cc6)o5)c4)nn3)n2)cc1 [Compound 117]
[1]; Group III
  IC50: 27.8 µM
[1]; [4]
  IC50: 2.3 to 5.3 µM

## Fc1ccc(Nc2nc(Nc3ccc(F)cc3)nc(-c3cn(-c4ccc(-c5nc(-c6ccc(Cl)cc6)c(-c6ccc(Cl)cc6)o5)cc4)nn3)n2)cc1 [Compound 118]
[1]; Group III
  IC50: 13.3 µM

## COc1ccc(-c2nc(-c3ccccc3-n3cc(-c4nc(Nc5ccc(F)cc5)nc(Nc5ccc(F)cc5)n4)nn3)oc2-c2ccc(OC)cc2)cc1 [Compound 119]
[1]; Group III
  IC50: > 60 µM

## COc1ccc(-c2nc(-c3cccc(-n4cc(-c5nc(Nc6ccc(F)cc6)nc(Nc6ccc(F)cc6)n5)nn4)c3)oc2-c2ccc(OC)cc2)cc1 [Compound 120]
[1]; Group III
  IC50: > 60 µM

## COc1ccc(-c2nc(-c3ccc(-n4cc(-c5nc(Nc6ccc(F)cc6)nc(Nc6ccc(F)cc6)n5)nn4)cc3)oc2-c2ccc(OC)cc2)cc1 [Compound 121]
[1]; Group III
  IC50: > 60 µM

## Fc1ccc(Nc2nc(Nc3ccc(F)cc3)nc(-c3cn(-c4ccccc4-c4nc(-c5ccco5)c(-c5ccco5)o4)nn3)n2)cc1 [Compound 122]
Gingival keratinocytes; 5 μM, gingival keratinocytes
  early apoptosis: 4.50
  late apoptosis: 3.95
  live cells: 88.30
Gingival keratinocytes; 20 μM, gingival keratinocytes
  early apoptosis: 5.93
  late apoptosis: 2.92
  live cells: 88.80
Gingival keratinocytes; 60 μM, gingival keratinocytes
  early apoptosis: 7.54
  late apoptosis: 4.59
  live cells: 83.65
[2]; time treated 1 h
  disruption of pre-existing 3-species biofilm: 0
[2]; time treated 2 h
  disruption of pre-existing 3-species biofilm: 25.71
[2]; time treated 3 h
  disruption of pre-existing 3-species biofilm: 68.82
[1]; Group III
  IC50: 2.4 µM

## Fc1ccc(Nc2nc(Nc3ccc(F)cc3)nc(-c3cn(-c4cccc(-c5nc(-c6ccco6)c(-c6ccco6)o5)c4)nn3)n2)cc1 [Compound 123]
[1]; Group III
  IC50: 8 µM

## Fc1ccc(Nc2nc(Nc3ccc(F)cc3)nc(-c3cn(-c4ccc(-c5nc(-c6ccco6)c(-c6ccco6)o5)cc4)nn3)n2)cc1 [Compound 124]
[1]; Group III
  IC50: 7.8 µM

## OO [Compound H2O2, H2O2, reference compound]
Gingival keratinocytes; 4 mM 1 h, positive control
  early apoptosis: 35.60
  late apoptosis: 41.50
  live cells: 11.30
